# Laboratory results from patent publication US20100137260A1, “COMPOUND FOR INHIBITING TRPV3 FUNCTION AND USE THEREOF” (Korea University Industry and Academic Collaboration …, priority 2008, published 2010).
# Test system: HaCat skin cells
# Test: Artificial wound recovery (cell migration and proliferation) in HaCat cells (FIG. 3)
# Assay type: cell-based
# Settings: 12 hours; for Migration and proliferation of HaCaT cells in medium containing camphor: medium containing 4 mM camphor, IPP 10 μM, FPP 1 μM, GPP 10 μM
# Method: The present inventors drew lines 1 mm deep on the well fully filled with the cells to make artificial wound. The wounded cells were treated with IPP (10 μM), FPP (1 μM) and GPP (10 μM: geranyl pyrophosphate, Biomol, USA) respectively and incubated in a CO2 incubator for 12 hours. The control group was not-treated. The width of recovered wound was measured under microscope and compared with that at the beginning, which was presented as wound recovery rate. All the experiments were performed on DMEM/FBS. Floating cells, which means dead cells, after making wound, were eliminated by using PBS to eliminate variables caused by dead cells. The cells were observed under microscope (×40), and distance was measured by using image analysis program (Meta-flour 7.1 Molecular Devices, USA).
SMILES,"Migration and proliferation of HaCat skin cells, compound alone (FPP alone (1 μM))",Migration and proliferation of HaCaT cells in medium containing camphor
CC(C)=CCC/C(C)=C/CC/C(C)=C/COP(=O)(O)OP(=O)(O)O [FPP],confirmed the inhibitory effect,inhibitory effect was not observed
"CC(C)=CCC/C(C)=C/COP(=O)(O)OP(=O)(O)O [GPP, geranyl pyrophosphate]",–,inhibitory effect was not observed
